In ChEMBL document CHEMBL1201862, “PubChem BioAssay data set” (2004):
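Compound exposure: 48 hours, 5 concentrations, 96-well plates. GI50 is the concentration that inhibits growth by half.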 Activity calls are given as the source filed them. Rule as the data show it: active = GI50 up to about 1.1 µM and inactive = higher.

What was measured:
Experiment in all cases: growth of human tumour cells (NCI), 48 h
DU-145 = tested on: DU-145
SNB-19 = tested on: SNB-19
NCI/ADR-RES = tested on: NCI/ADR-RES
MDA-MB-435 = tested on: MDA-MB-435
MCF7 = tested on: MCF7
SK-MEL-28 = tested on: SK-MEL-28
NCI-H23 = tested on: NCI-H23
HOP-92 = tested on: HOP-92
NCI-H460 = tested on: NCI-H460
OVCAR-3 = tested on: OVCAR-3
CAKI-1 = tested on: CAKI-1
NCI-H522 = tested on: NCI-H522
PC-3 = tested on: PC-3
HT-29 = tested on: HT-29
SF-295 = tested on: SF-295
A498 = tested on: A498
HCT-15 = tested on: HCT-15
M14 = tested on: M14
RXF 393 = tested on: RXF 393
OVCAR-4 = tested on: OVCAR-4

Row | SMILES | GI50 (DU-145) | GI50 (SNB-19) | GI50 (NCI/ADR-RES) | GI50 (MDA-MB-435) | GI50 (MCF7) | GI50 (SK-MEL-28) | GI50 (NCI-H23) | GI50 (HOP-92) | GI50 (NCI-H460) | GI50 (OVCAR-3) | GI50 (CAKI-1) | GI50 (NCI-H522) | GI50 (PC-3) | GI50 (HT-29) | GI50 (SF-295) | GI50 (A498) | GI50 (HCT-15) [µM] | GI50 (M14) | GI50 (RXF 393) | GI50 (OVCAR-4)
1 | CN(C)CCNc1ccc2c(=O)n(CCN(C)C)c(=O)n3c4ccc(O)cc4c(=O)c1c23 | < 0.01 µM (active) | < 0.0212 µM (active) | 0.546 µM (active) | 0.0711 µM (active) | < 0.01 µM (active) | 0.202 µM (active) | < 0.01 µM (active) | < 0.01 µM (active) | < 0.01 µM (active) | 0.105 µM (active) | < 0.01 µM (active) | < 0.01 µM (active) | < 0.0491 µM (active) | < 0.01 µM (active) | < 0.01 µM (active) | 0.0611 µM (active) | 0.045 | < 0.034 µM (active) | < 0.0127 µM (active) | 0.106 µM (active)
2 | C#C[C@@]1(O)CCCC2=CC3(CC[C@]21C)SCCS3 | > 100 µM (inactive) | > 100 µM (inactive) | > 100 µM (inactive) | > 100 µM (inactive) | > 100 µM (inactive) | > 100 µM (inactive) | > 100 µM (inactive) | > 100 µM (inactive) | > 100 µM (inactive) | > 100 µM (inactive) |  | > 100 µM (inactive) | > 100 µM (inactive) | > 100 µM (inactive) | > 100 µM (inactive) | > 100 µM (inactive) | > 100 | > 100 µM (inactive) | > 100 µM (inactive) | > 100 µM (inactive)
3 | COC(=O)C1=CN(C2CCCCC2)C2(c3ccccc3)c3ccccc3C(=O)OC(=O)C12 (configuration not stated) | > 100 µM (inactive) | > 100 µM (inactive) | > 100 µM (inactive) | 46.5 µM (inactive) | > 100 µM (inactive) | > 100 µM (inactive) | > 100 µM (inactive) | 39 µM (inactive) | 80.2 µM (inactive) | > 100 µM (inactive) | 46.8 µM (inactive) | > 100 µM (inactive) | 71.6 µM (inactive) | 62.2 µM (inactive) | > 100 µM (inactive) | > 100 µM (inactive) | > 100 | > 100 µM (inactive) | 23 µM (inactive) | > 100 µM (inactive)
4 | Cc1ccccc1NC(=O)C(=O)Cc1cnc2ccccc2n1 | > 100 µM (inactive) | > 100 µM (inactive) | > 100 µM (inactive) | > 100 µM (inactive) | > 100 µM (inactive) | > 100 µM (inactive) | > 100 µM (inactive) | > 100 µM (inactive) | > 100 µM (inactive) | > 100 µM (inactive) | > 100 µM (inactive) | > 100 µM (inactive) | > 100 µM (inactive) | > 100 µM (inactive) | > 100 µM (inactive) | > 100 µM (inactive) | > 100 | > 100 µM (inactive) |  | > 100 µM (inactive)
5 | COc1ccc2c(c1)C(N)CC2=O (configuration not stated) | > 100 µM (inactive) | > 100 µM (inactive) | > 100 µM (inactive) | > 100 µM (inactive) | > 100 µM (inactive) | > 100 µM (inactive) | > 100 µM (inactive) | > 100 µM (inactive) |  | > 100 µM (inactive) | > 100 µM (inactive) | > 100 µM (inactive) | 18.9 µM (inactive) | > 100 µM (inactive) | > 100 µM (inactive) | > 100 µM (inactive) | > 100 | > 100 µM (inactive) | 19 µM (inactive) | > 100 µM (inactive)
6 | N#Cc1c(-c2ccc(Cl)cc2Cl)nc2[nH]nc(S)n2c1=O | > 100 µM (inactive) | > 100 µM (inactive) | > 100 µM (inactive) | > 100 µM (inactive) | > 100 µM (inactive) | > 100 µM (inactive) | > 100 µM (inactive) | > 100 µM (inactive) | > 100 µM (inactive) |  | > 100 µM (inactive) | > 100 µM (inactive) | > 100 µM (inactive) | > 100 µM (inactive) | > 100 µM (inactive) | > 100 µM (inactive) | > 100 | > 100 µM (inactive) | > 100 µM (inactive) | > 100 µM (inactive)
7 | CN(C)c1ccc(C(=NNC(=O)c2cc3ccccc3[nH]2)c2ccc(N(C)C)cc2)cc1 | 1.39 µM (inactive) | 0.625 µM (active) | 0.177 µM (active) | 0.024 µM (active) | 0.245 µM (active) |  | 0.912 µM (active) | 3.22 µM (inactive) | 0.348 µM (active) | 0.276 µM (active) | 0.971 µM (active) | 0.275 µM (active) | 0.598 µM (active) | 0.195 µM (active) | 0.303 µM (active) | 1.05 µM (active) | 0.156 | 0.185 µM (active) | 1.15 µM (inactive) | 2.73 µM (inactive)
8 | COc1cc(CNc2nc3ccccc3nc2C(=O)O)cc(OC)c1OC | > 100 µM (inactive) |  | > 100 µM (inactive) | > 100 µM (inactive) | 81.1 µM (inactive) | > 100 µM (inactive) | > 100 µM (inactive) | 65 µM (inactive) | 94 µM (inactive) | > 100 µM (inactive) | > 100 µM (inactive) | 71.9 µM (inactive) | > 100 µM (inactive) | > 100 µM (inactive) | > 100 µM (inactive) | > 100 µM (inactive) | > 100 |  | 94 µM (inactive) | > 100 µM (inactive)
9 | Cn1c(-c2ccc(/N=N/Nc3ccc(-c4n[nH]c(=S)n4C)cc3)cc2)n[nH]c1=S | 12.8 µM (inactive) | 17.7 µM (inactive) | > 100 µM (inactive) | > 100 µM (inactive) | 12.1 µM (inactive) | > 100 µM (inactive) | 7.8 µM (inactive) | 2.91 µM (inactive) |  | 33.3 µM (inactive) |  | 4.05 µM (inactive) | > 100 µM (inactive) | > 100 µM (inactive) | 18.3 µM (inactive) | 24.9 µM (inactive) | > 100 | 8.89 µM (inactive) | 11.6 µM (inactive) | > 100 µM (inactive)
10 | Clc1nc(NCCc2ccccc2)c2ncn(-c3ccccc3)c2n1 | 25.2 µM (inactive) | 37 µM (inactive) | 20.6 µM (inactive) | 16.3 µM (inactive) | 24.9 µM (inactive) | 33.3 µM (inactive) | 25.6 µM (inactive) |  | 15.3 µM (inactive) | 25.2 µM (inactive) | 7.83 µM (inactive) | 16 µM (inactive) | 16.1 µM (inactive) | 16.2 µM (inactive) | 25.3 µM (inactive) | 17.3 µM (inactive) | 25.5 | 21.5 µM (inactive) | 24.8 µM (inactive) | 14.1 µM (inactive)
11 | N#Cc1nc(CN2C(=O)c3ccccc3C2=O)oc1N | > 100 µM (inactive) |  | > 100 µM (inactive) | > 100 µM (inactive) | > 100 µM (inactive) | > 100 µM (inactive) |  | > 100 µM (inactive) | > 100 µM (inactive) | > 100 µM (inactive) | > 100 µM (inactive) | > 100 µM (inactive) | > 100 µM (inactive) | > 100 µM (inactive) | > 100 µM (inactive) | > 100 µM (inactive) | > 100 | > 100 µM (inactive) | > 100 µM (inactive) | > 100 µM (inactive)
12 | Clc1cc(-c2ccccc2)nc2ccccc12 | 40.6 µM (inactive) | 88.7 µM (inactive) | 33.6 µM (inactive) | 26.2 µM (inactive) | 23.7 µM (inactive) | 57.5 µM (inactive) | 51.6 µM (inactive) | 36.8 µM (inactive) | 35.5 µM (inactive) | 49.9 µM (inactive) | 33.9 µM (inactive) | 17 µM (inactive) | 24.8 µM (inactive) | 32.1 µM (inactive) | 38.4 µM (inactive) | 33 µM (inactive) | 16 | 37.6 µM (inactive) | 31.7 µM (inactive) | 20.7 µM (inactive)
13 | COc1cccc2c1C(=O)c1c(O)c3c(c(O)c1C2=O)C[C@@](O)(C(C)=O)CC3OC1CC(OC2CC(N)C(O)C(C)O2)C(O)C(C)O1 (some centres not stated) | 49.1 µM (inactive) | 21.1 µM (inactive) | > 100 µM (inactive) | 56.2 µM (inactive) | 7.66 µM (inactive) | > 72.4 µM (inactive) | 34.9 µM (inactive) | 31.3 µM (inactive) | 14.6 µM (inactive) | 31 µM (inactive) | > 100 µM (inactive) | 45.4 µM (inactive) | 48.6 µM (inactive) | 39.5 µM (inactive) | 49 µM (inactive) | > 100 µM (inactive) | > 85.1 | 61.7 µM (inactive) | 83 µM (inactive) | > 100 µM (inactive)
14 | COc1cc2c(cc1C)NC(=O)/C2=C/c1c(Cl)[nH]c2ccccc12 | 13.3 µM (inactive) | 4.5 µM (inactive) | 2.62 µM (inactive) | 1.62 µM (inactive) | 3.8 µM (inactive) | 7 µM (inactive) | 10.1 µM (inactive) | 11.2 µM (inactive) | 3.92 µM (inactive) | 2.26 µM (inactive) | 7.71 µM (inactive) | 6.75 µM (inactive) | 5.21 µM (inactive) | 3.94 µM (inactive) | 1.77 µM (inactive) | 4.57 µM (inactive) | 3.38 | 3.21 µM (inactive) | 8.07 µM (inactive) | 
15 | O=Cc1cc2c(o1)C(=O)c1ccccc1C2=O | 0.212 µM (active) | 0.656 µM (active) | 1.81 µM (inactive) | 0.197 µM (active) | 0.213 µM (active) | 0.405 µM (active) | 0.191 µM (active) | 1.83 µM (inactive) | 0.794 µM (active) | 0.358 µM (active) | 2.84 µM (inactive) | 1.48 µM (inactive) | 2.53 µM (inactive) | 0.581 µM (active) | 0.367 µM (active) | 4.78 µM (inactive) | 0.281 | 0.192 µM (active) | 1.35 µM (inactive) | 1.17 µM (inactive)
